Data published in US20230114728A1 (Venatorx Pharmaceuticals, Inc., priority 2019, published 2023).
≈ marks a conversion by molar mass, not a printed value.

Key:
Assay type in all cases: cell-based
N. gonorrhoeae H041 = test: Liquid broth MIC in Fastidious broth; settings: Neisseria gonorrhoeae, H041, read-out: Minimum Inhibitory Concentration, N. gonorrhoeae H041
In short: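 Mosaic PBP2 producers; colonies from 24 h chocolate agar, saline suspension, OD600. Fastidious broth, 2-fold dilutions, 5×10^5 CFU/mL. ~24 h, 36 °C, 5% CO2; visual MIC, <10% growth cutoff.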

[1] = tested on: K. pneumoniae UMM producing SHV-5 and KPC-2; test: Broth microdilution MIC in CAMHB; settings: Klebsiella pneumoniae, read-out: Minimum Inhibitory Concentration, K. pneumoniae UMM
In short: (§1)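 Hyper-permeable or efflux-deficient strains serve to probe outer-membrane penetration. Growth inhibition is scored visually after 16-20 h at 37° C in CAMHB, starting from 2-8×10^5 CFU/mL.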

E. coli ATCC 25922 = test: Broth microdilution MIC in CAMHB; settings: Escherichia coli, ATCC25922; E. coli ATCC 25922; MHB; read-out: Minimum Inhibitory Concentration, E. coli 25922
In short: as §1

E. coli AG100 = test: Broth microdilution MIC in CAMHB; settings: Escherichia coli; E. coli AG100 (wild-type parent); MHB; read-out: Minimum Inhibitory Concentration, E. coli AG100
In short: as §1

P. aeruginosa ATCC 27853 = test: Broth microdilution MIC in CAMHB; settings: Pseudomonas aeruginosa, ATCC27853; MHB; read-out: Minimum Inhibitory Concentration, P. aeruginosa ATCC 27853
In short: as §1

P. aeruginosa ATCC 35151 = test: Broth microdilution MIC in CAMHB; settings: Pseudomonas aeruginosa, ATCC35151; MHB; hyper-permeable strain; read-out: Minimum Inhibitory Concentration, P. aeruginosa ATCC 35151
In short: as §1

E. coli 901C = test: Broth microdilution MIC in CAMHB; settings: Escherichia coli; E. coli 901C (hyper-permeable); MHB; read-out: Minimum Inhibitory Concentration, E. coli 901C
In short: as §1

[2] = tested on: K. pneumoniae SI-117 producing VIM-1; test: Broth microdilution MIC in CAMHB; settings: Klebsiella pneumoniae, read-out: Minimum Inhibitory Concentration, K. pneumoniae SI-117
In short: as §1

E. coli AG100A = test: Broth microdilution MIC in CAMHB; settings: Escherichia coli, read-out: Minimum Inhibitory Concentration, E. coli AG100A
In short: as §1

[3] = tested on: P. aeruginosa (ΔmexAB-oprM); test: Broth microdilution MIC in CAMHB; settings: Pseudomonas aeruginosa, read-out: Minimum Inhibitory Concentration, P. aeruginosa ΔmexAB-OprM
In short: as §1

E. coli D22 = test: Broth microdilution MIC in CAMHB; settings: Escherichia coli; E. coli D22 (hyper-permeable); MHB; read-out: Minimum Inhibitory Concentration, E. coli D22
In short: as §1

[4] = tested on: K. pneumoniae 848844 producing SHV-11 and KPC-2; test: Broth microdilution MIC in CAMHB; settings: Klebsiella pneumoniae, read-out: Minimum Inhibitory Concentration, K. pneumoniae 848844
In short: as §1

A. baumannii ATCC 19606 = test: Broth microdilution MIC in CAMHB; settings: Acinetobacter baumannii, ATCC19606; MHB; read-out: Minimum Inhibitory Concentration, A. baumannii ATCC 19606
In short: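 MIC, read by eye, is the lowest compound concentration giving no bacterial growth after 16-20 h at 37° C. Test compounds are serially diluted 2-fold in CAMHB and seeded with 2-8×10^5 CFU/mL of bacteria taken from a 3-5 h shaking culture, following CLSI methods.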

Row | SMILES | MIC (N. gonorrhoeae H041) [µg/mL] | MIC [1] [µg/mL] | MIC (E. coli ATCC 25922) [µg/mL] | MIC (E. coli AG100) [µg/mL] | MIC (P. aeruginosa ATCC 27853) [µg/mL] | MIC (P. aeruginosa ATCC 35151) [µg/mL] | MIC (E. coli 901C) [µg/mL] | MIC [2] [µg/mL] | MIC (E. coli AG100A) [µg/mL] | MIC [3] [µg/mL] | MIC (E. coli D22) [µg/mL] | MIC [4] [µg/mL] | MIC (A. baumannii ATCC 19606) [µg/mL]
1 | CCN1CCN(C(=O)NC(C(=O)N[C@H]2Cc3cccc(C(=O)O)c3OB2O)c2cc(F)c(O)cc2F)C(=O)C1=O (stereo partly drawn) [Example 104, (3R)-3-(2-(2,5-difluoro-4-hydroxyphenyl)-2-(4-ethyl-2,3-dioxopiperazine-1-carboxamido)acetamido)-2-hydroxy-3,4-dihydro-2H-benzo[e][1,2]oxaborinine-8-carboxylic acid] | 16 to 32 (≈ 28.6 to 57.1 µM) | 32 to 64 (≈ 57.1 to 114 µM) | 32 to 64 (≈ 57.1 to 114 µM) | 32 to 64 (≈ 57.1 to 114 µM) | > 128 | 2 to 4 (≈ 3.57 to 7.14 µM) | < 0.25 | 32 to 64 (≈ 57.1 to 114 µM) | 2 to 4 (≈ 3.57 to 7.14 µM) | 8 to 16 (≈ 14.3 to 28.6 µM) | 2 to 4 (≈ 3.57 to 7.14 µM) | > 128 | > 128
2 | CCN1CCN(C(=O)N[C@@H](C(=O)N[C@H]2Cc3cccc(C(=O)O)c3OB2O)c2cc(F)c(C(=O)O)cc2Cl)C(=O)C1=O (single isomer, unassigned) [Example 148] | 16 to 32 (≈ 26.5 to 52.9 µM) | 32 to 64 (≈ 52.9 to 106 µM) | > 128 | 32 to 64 (≈ 52.9 to 106 µM) | > 128 | < 0.25 | < 0.25 | > 128 | 8 to 16 (≈ 13.2 to 26.5 µM) | 8 to 16 (≈ 13.2 to 26.5 µM) | 2 to 4 (≈ 3.31 to 6.61 µM) | > 128 | > 128
3 | O=C(O)c1cccc2c1OB(O)[C@@H](NC(=O)[C@H](NC(=O)N1CCN(CCF)C(=O)C1=O)c1c(F)cc(O)cc1F)C2 (single isomer, unassigned) [Example 126] | 16 to 32 (≈ 27.7 to 55.3 µM) | 8 to 16 (≈ 13.8 to 27.7 µM) | 8 to 16 (≈ 13.8 to 27.7 µM) | 8 to 16 (≈ 13.8 to 27.7 µM) | > 128 | 2 to 4 (≈ 3.46 to 6.92 µM) | < 0.25 | 8 to 16 (≈ 13.8 to 27.7 µM) |  | 8 to 16 (≈ 13.8 to 27.7 µM) | 0.5 to 1 (≈ 0.865 to 1.73 µM) | 32 to 64 (≈ 55.3 to 111 µM) | > 128
4 | NCCN1CCN(C(=O)NC(C(=O)N[C@H]2Cc3cccc(C(=O)O)c3OB2O)c2cc(F)c(O)cc2Cl)C(=O)C1=O (stereo partly drawn) [Example 109, (3R)-3-(2-(4-(2-aminoethyl)-2,3-dioxopiperazine-1-carboxamido)-2-(2-chloro-5-fluoro-4-hydroxyphenyl)acetamido)-2-hydroxy-3,4-dihydro-2H-benzo[e][1,2]oxaborinine-8-carboxylic acid] | > 64 | 32 to 64 (≈ 54.1 to 108 µM) | 32 to 64 (≈ 54.1 to 108 µM) | > 128 | > 128 | 2 to 4 (≈ 3.38 to 6.76 µM) | 2 to 4 (≈ 3.38 to 6.76 µM) | > 128 | 8 to 16 (≈ 13.5 to 27 µM) | 8 to 16 (≈ 13.5 to 27 µM) | 8 to 16 (≈ 13.5 to 27 µM) | > 128 | > 128
5 | CCN1CCN(C(=O)NC(C(=O)N[C@H]2Cc3cccc(C(=O)O)c3OB2O)c2ccc(O)c(F)c2F)C(=O)C1=O (stereo partly shown) [Example 173] | 16 to 32 (≈ 28.6 to 57.1 µM) | 32 to 64 (≈ 57.1 to 114 µM) | 8 to 16 (≈ 14.3 to 28.6 µM) | 8 to 16 (≈ 14.3 to 28.6 µM) | > 128 | 0.5 to 1 (≈ 0.892 to 1.78 µM) | < 0.25 | 32 to 64 (≈ 57.1 to 114 µM) | 2 to 4 (≈ 3.57 to 7.14 µM) | 2 to 4 (≈ 3.57 to 7.14 µM) | 2 to 4 (≈ 3.57 to 7.14 µM) | > 128 | > 128
6 | CCN1CCN(C(=O)NC(C(=O)N[C@H]2Cc3cccc(C(=O)O)c3OB2O)c2cccc(C(=O)O)c2)C(=O)C1=O (stereo partly drawn) [Example 113, (3R)-3-(2-(3-carboxyphenyl)-2-(4-ethyl-2,3-dioxopiperazine-1-carboxamido)acetamido)-2-hydroxy-3,4-dihydro-2H-benzo[e][1,2]oxaborinine-8-carboxylic acid] | > 64 | 32 to 64 (≈ 57.9 to 116 µM) | 32 to 64 (≈ 57.9 to 116 µM) | 32 to 64 (≈ 57.9 to 116 µM) | > 128 | 0.5 to 1 (≈ 0.905 to 1.81 µM) | < 0.25 | > 128 | 2 to 4 (≈ 3.62 to 7.24 µM) | 8 to 16 (≈ 14.5 to 29 µM) | 2 to 4 (≈ 3.62 to 7.24 µM) | > 128 | > 128
7 | CCN1CCN(C(=O)N[C@@H](C(=O)N[C@H]2Cc3cccc(C(=O)O)c3OB2O)c2ccc(C(=O)O)cc2O)C(=O)C1=O (single isomer, unassigned) [Example 144] | 16 to 32 (≈ 28.2 to 56.3 µM) | 32 to 64 (≈ 56.3 to 113 µM) | 32 to 64 (≈ 56.3 to 113 µM) | 32 to 64 (≈ 56.3 to 113 µM) | > 128 | 0.5 to 1 (≈ 0.88 to 1.76 µM) | < 0.25 | > 128 | 8 to 16 (≈ 14.1 to 28.2 µM) | 8 to 16 (≈ 14.1 to 28.2 µM) | 2 to 4 (≈ 3.52 to 7.04 µM) | > 128 | 32 to 64 (≈ 56.3 to 113 µM)
8 | C[C@@H](O)[C@@H](NC(=O)N1CCN(CCNC(=O)c2c(F)cc(O)c(O)c2Cl)C(=O)C1=O)C(=O)N[C@H]1Cc2ccc(F)c(C(=O)O)c2OB1O [Example 102, (R)-3-((2R,3R)-2-(4-(2-(2-chloro-6-fluoro-3,4-dihydroxybenzamido)ethyl)-2,3-dioxopiperazine-1-carboxamido)-3-hydroxybutanamido)-7-fluoro-2-hydroxy-3,4-dihydro-2H-benzo[e][1,2]oxaborinine-8-carboxylic acid] | > 64 |  |  |  |  |  |  |  |  |  |  |  | 
9 | NS(=O)(=O)c1cc(O)cc(C(NC(=O)N2CCN(Cc3c(F)cc(O)c(O)c3Cl)C(=O)C2=O)C(=O)N[C@H]2Cc3cccc(C(=O)O)c3OB2O)c1 (stereo partly drawn) [Example 132, (3R)-3-(2-(4-(2-chloro-6-fluoro-3,4-dihydroxybenzyl)-2,3-dioxopiperazine-1-carboxamido)-2-(3-hydroxy-5-sulfamoylphenyl)acetamido)-2-hydroxy-3,4-dihydro-2H-benzo[e][1,2]oxaborinine-8-carboxylic acid] | > 64 |  |  |  |  |  |  |  |  |  |  |  | 
10 | NCCCN1CCN(C(=O)N[C@@H](C(=O)N[C@H]2Cc3ccc(F)c(C(=O)O)c3OB2O)c2cc(F)c(O)c(O)c2Cl)C(=O)C1=O (single isomer, unassigned) [Example 180] | > 64 |  |  |  |  |  |  |  |  |  |  |  | 
11 | NC1(CN2CCN(C(=O)N[C@@H](C(=O)N[C@H]3Cc4ccc(F)c(C(=O)O)c4OB3O)c3c(F)cc(O)c(O)c3Cl)C(=O)C2=O)CC1 (single isomer, unassigned) [Example 134] | > 64 |  |  |  |  |  |  |  |  |  |  |  | 
12 | NCCN1CCN(C(=O)N[C@@H](C(=O)N[C@H]2Cc3ccc(F)c(C(=O)O)c3OB2O)c2cc(F)c(O)c(O)c2Cl)C(=O)C1=O (single isomer, unassigned) [Example 179] | > 64 |  |  |  |  |  |  |  |  |  |  |  | 
13 | NC1(CN2CCN(C(=O)N[C@@H](C(=O)N[C@H]3Cc4ccc(F)c(C(=O)O)c4OB3O)c3cc(F)c(O)c(O)c3Cl)C(=O)C2=O)CC1 (single isomer, unassigned) [Example 133] | > 64 |  |  |  |  |  |  |  |  |  |  |  | 
14 | NS(=O)(=O)Nc1cccc(C(NC(=O)N2CCN(Cc3c(F)cc(O)c(O)c3Cl)C(=O)C2=O)C(=O)N[C@H]2Cc3cccc(C(=O)O)c3OB2O)c1 (stereo partly drawn) [Example 131, (3R)-3-(2-(4-(2-chloro-6-fluoro-3,4-dihydroxybenzyl)-2,3-dioxopiperazine-1-carboxamido)-2-(3-(sulfamoylamino)phenyl)acetamido)-2-hydroxy-3,4-dihydro-2H-benzo[e][1,2]oxaborinine-8-carboxylic acid] | > 64 |  |  |  |  |  |  |  |  |  |  |  | 
15 | CCN1CCN(C(=O)NC(C(=O)N[C@H]2Cc3cccc(C(=O)O)c3OB2O)c2c(F)cc(O)cc2F)C(=O)C1=O (stereo partly drawn) [Example 105, (3R)-3-(2-(2,6-difluoro-4-hydroxyphenyl)-2-(4-ethyl-2,3-dioxopiperazine-1-carboxamido)acetamido)-2-hydroxy-3,4-dihydro-2H-benzo[e][1,2]oxaborinine-8-carboxylic acid] | 16 to 32 (≈ 28.6 to 57.1 µM) | 8 to 16 (≈ 14.3 to 28.6 µM) | 8 to 16 (≈ 14.3 to 28.6 µM) | 8 to 16 (≈ 14.3 to 28.6 µM) |  |  | < 0.25 | 32 to 64 (≈ 57.1 to 114 µM) | 0.5 to 1 (≈ 0.892 to 1.78 µM) |  | 0.5 to 1 (≈ 0.892 to 1.78 µM) | 32 to 64 (≈ 57.1 to 114 µM) | 
16 | CCN1CCN(C(=O)N[C@@H](C(=O)N[C@H]2Cc3cccc(C(=O)O)c3OB2O)c2ccc(C(=O)O)c(Cl)c2)C(=O)C1=O (single isomer, unassigned) [Example 154] | 1 to 2 (≈ 1.7 to 3.41 µM) | 32 to 64 (≈ 54.5 to 109 µM) | 32 to 64 (≈ 54.5 to 109 µM) | 32 to 64 (≈ 54.5 to 109 µM) | > 128 | < 0.25 | < 0.25 |  | 8 to 16 (≈ 13.6 to 27.3 µM) | 8 to 16 (≈ 13.6 to 27.3 µM) | 2 to 4 (≈ 3.41 to 6.82 µM) | > 128 | 32 to 64 (≈ 54.5 to 109 µM)
